Common to all, as to assay type: functional
In test [1] the test system is Pseudomonas aeruginosa. Kind of test: Antibacterial activity against Pseudomonas aeruginosa assessed as inhibition of bacterial growth by continuous dilution method.
Test [2] deals with Escherichia coli. Briefly: Antibacterial activity against Escherichia coli assessed as inhibition of bacterial growth by continuous dilution method.
For test [3], the system named is Staphylococcus aureus. Kind of test: Antibacterial activity against Staphylococcus aureus ATCC 25923 assessed as inhibition of bacterial growth by continuous dilution method.
The subject of test [4] is Enterococcus faecalis. Kind of test: Antibacterial activity against Enterococcus faecalis assessed as inhibition of bacterial growth by continuous dilution method.
Test [5] relates to Escherichia coli. Briefly: Antibacterial activity against Escherichia coli ATCC 25922 assessed as inhibition of bacterial growth by continuous dilution method.
The test system of test [6] is Klebsiella pneumoniae. Briefly: Antibacterial activity against Klebsiella pneumoniae assessed as inhibition of bacterial growth by continuous dilution method.
Test [7] relates to Acinetobacter baumannii. Briefly: Antibacterial activity against Acinetobacter baumannii assessed as inhibition of bacterial growth by continuous dilution method.
The test system of test [8] is Staphylococcus aureus. Kind of test: Antibacterial activity against methicillin-resistant Staphylococcus aureus N315 assessed as inhibition of bacterial growth by continuous dilution method.
Test [9] concerns Staphylococcus aureus. Kind of test: Antibacterial activity against Staphylococcus aureus assessed as inhibition of bacterial growth by continuous dilution method.
The test system of test [10] is Pseudomonas aeruginosa. Kind of test: Antibacterial activity against Pseudomonas aeruginosa ATCC 27853 assessed as inhibition of bacterial growth by continuous dilution method.
Test [11] has as its system Staphylococcus aureus. Briefly: Antibacterial activity against Staphylococcus aureus ATCC 29213 assessed as inhibition of bacterial growth by continuous dilution method.

Values after ≈ are worked out from the molar mass of the structure shown.

As for `CC(=O)Nc1ccc(S(=O)(=O)C/C(=N/NC(=O)c2ccccc2O)c2nccs2)cc1`, the MIC turned out to be 256 µg/mL (≈ 558 µM) in [1]; 128 µg/mL (≈ 279 µM) in [2]; 64 µg/mL (≈ 140 µM) in test [3]; 128 µg/mL (≈ 279 µM) in test [4]; 64 µg/mL (≈ 140 µM) in test [5]; 128 µg/mL (≈ 279 µM) in test [6]. In addition, the MIC in [7] was determined as 128 µg/mL (≈ 279 µM); in [8], 64 µg/mL (≈ 140 µM); in [9], 128 µg/mL (≈ 279 µM); in test [10] it was 16 µg/mL (≈ 34.9 µM); in test [11], 256 µg/mL (≈ 558 µM).
In the case of `CCCCCCO/N=C(/CS(=O)(=O)c1ccc(NC(C)=O)cc1)c1nccs1`, the MIC in [1] is 32 µg/mL (≈ 75.6 µM); in [2] it was 32 µg/mL (≈ 75.6 µM); in test [3], 64 µg/mL (≈ 151 µM); in [4], 32 µg/mL (≈ 75.6 µM); in [5] it was 8 µg/mL (≈ 18.9 µM); in [6] it was 64 µg/mL (≈ 151 µM). Moreover, the MIC in [7] was 128 µg/mL (≈ 302 µM); in test [8], 32 µg/mL (≈ 75.6 µM); in test [9], 64 µg/mL (≈ 151 µM); in test [10] it was 32 µg/mL (≈ 75.6 µM); in test [11] it was 128 µg/mL (≈ 302 µM).
For `Nc1ccc(S(=O)(=O)C/C(=N/OCc2ccc(Cl)cc2Cl)c2nccs2)cc1`, the MIC stood at 64 µg/mL (≈ 140 µM) in [1]; 32 µg/mL (≈ 70.1 µM) in test [2]; 64 µg/mL (≈ 140 µM) in test [3]; 16 µg/mL (≈ 35.1 µM) in test [4]; 16 µg/mL (≈ 35.1 µM) in [5]; 32 µg/mL (≈ 70.1 µM) in test [6]. Besides, the MIC came to 64 µg/mL (≈ 140 µM) in test [7]; 64 µg/mL (≈ 140 µM) in test [8]; 64 µg/mL (≈ 140 µM) in test [9]; 16 µg/mL (≈ 35.1 µM) in test [10]; 64 µg/mL (≈ 140 µM) in [11].
`CCO/N=C(/CS(=O)(=O)c1ccc(N)cc1)c1nccs1`: the MIC in test [1] was 64 µg/mL (≈ 197 µM); in [2], 16 µg/mL (≈ 49.2 µM); in test [3] it was 64 µg/mL (≈ 197 µM); in test [4] it was 64 µg/mL (≈ 197 µM); in [5], 32 µg/mL (≈ 98.3 µM); in test [6] it was 32 µg/mL (≈ 98.3 µM). For the same molecule, the MIC was 128 µg/mL (≈ 393 µM) in test [7]; 256 µg/mL (≈ 787 µM) in test [8]; 256 µg/mL (≈ 787 µM) in test [9]; 32 µg/mL (≈ 98.3 µM) in [10]; 64 µg/mL (≈ 197 µM) in test [11].
As for `CCO/N=C(/CS(=O)(=O)c1ccc(NC(C)=O)cc1)c1nccs1`, the MIC in test [1] is 128 µg/mL (≈ 348 µM); in [2] it was 32 µg/mL (≈ 87.1 µM); in test [3], 128 µg/mL (≈ 348 µM); in test [4] it was 32 µg/mL (≈ 87.1 µM); in test [5] it was 16 µg/mL (≈ 43.5 µM); in test [6], 64 µg/mL (≈ 174 µM). Moreover, the MIC in test [7] came to 256 µg/mL (≈ 697 µM); in test [8], 64 µg/mL (≈ 174 µM); in test [9], 128 µg/mL (≈ 348 µM); in test [10], 64 µg/mL (≈ 174 µM); in test [11] it was 64 µg/mL (≈ 174 µM).
Consider `CC(=O)Nc1ccc(S(=O)(=O)C/C(=N/O)c2nccs2)cc1`, for which the MIC in [1] is 128 µg/mL (≈ 377 µM); in test [2] it was 64 µg/mL (≈ 189 µM); in test [3] it was 128 µg/mL (≈ 377 µM); in [4], 64 µg/mL (≈ 189 µM); in test [5], 64 µg/mL (≈ 189 µM); in test [6], 64 µg/mL (≈ 189 µM). Besides, the MIC in test [7] stood at 256 µg/mL (≈ 754 µM); in [8], 64 µg/mL (≈ 189 µM); in test [9], 128 µg/mL (≈ 377 µM); in test [10] it was 64 µg/mL (≈ 189 µM); in test [11], 64 µg/mL (≈ 189 µM).
Turning to `CC(=O)Nc1ccc(S(=O)(=O)/C(=C\c2ccc(C#N)cc2)C(=O)c2nccs2)cc1`, the MIC in test [1] is 128 µg/mL (≈ 293 µM); in test [2] it was 32 µg/mL (≈ 73.1 µM); in [3], 32 µg/mL (≈ 73.1 µM); in test [4], 8 µg/mL (≈ 18.3 µM); in [5] it was 16 µg/mL (≈ 36.6 µM); in test [6], 128 µg/mL (≈ 293 µM). Further, the minimal inhibitory concentration (MIC) in test [7] was 128 µg/mL (≈ 293 µM); in test [8], 8 µg/mL (≈ 18.3 µM); in test [9] it was 8 µg/mL (≈ 18.3 µM); in [10], 64 µg/mL (≈ 146 µM); in test [11], 8 µg/mL (≈ 18.3 µM).
Take `CC(=O)Nc1ccc(S(=O)(=O)C/C(=N/OCc2ccc(Cl)cc2Cl)c2nccs2)cc1`: the MIC worked out at 64 µg/mL (≈ 128 µM) in test [1]; 64 µg/mL (≈ 128 µM) in test [2]; 128 µg/mL (≈ 257 µM) in [3]; 64 µg/mL (≈ 128 µM) in [4]; 16 µg/mL (≈ 32.1 µM) in test [5]; 64 µg/mL (≈ 128 µM) in test [6]. Moreover, the MIC is 128 µg/mL (≈ 257 µM) in [7]; 64 µg/mL (≈ 128 µM) in test [8]; 128 µg/mL (≈ 257 µM) in test [9]; 32 µg/mL (≈ 64.2 µM) in [10]; 128 µg/mL (≈ 257 µM) in test [11].

For the origin of these results see ChEMBL document CHEMBL5325403, “Benzenesulfonyl thiazoloimines as unique multitargeting antibacterial agents towards Enterococcus faecalis” (Eur J Med Chem, 2023).
